Experimental data: ChEMBL document CHEMBL5331055, “Current medicinal chemistry strategies in the discovery of novel HIV-1 ribonuclease H inhibitors” (Eur J Med Chem, 2022)
pEC50, pIC50: −log10 of the molar value.

Legend:
[1] = biological target: T1, Human immunodeficiency virus type 1 reverse transcriptase (Human immunodeficiency virus 1, UniProt Q72547); assay: Inhibition of N-terminal 6-his-tagged HIV-1 reverse transcriptase RNase H (427 to 560 residues) transformed in Escherichia coli […] (DE3) at pH 8.0 incubated for 4 hrs
[2] = biological target: T1, Human immunodeficiency virus type 1 reverse transcriptase; assay: Inhibition of N-terminal 6-his-tagged HIV-1 reverse transcriptase RNase H (427 to 560 residues) transformed in Escherichia coli […] (DE3) at pH 7.4 incubated for 4 hrs
[3] = biological target: T1, Human immunodeficiency virus type 1 reverse transcriptase; assay: Inhibition of HIV-1 RNase H
[4] = system: Human immunodeficiency virus 1; assay: Antiviral activity against wild type HIV-1 infected in human MT4 cells assessed as inhibition of virus-induced cytopathic effect measured by MTT assay; format: functional, organism-based; conditions: Human immunodeficiency virus 1, MT4
[5] = biological target: T1, Human immunodeficiency virus type 1 reverse transcriptase; assay: Inhibition of wild type HIV-1 reverse transcriptase associated DNA polymerase independent RNase H activity using 5-GTTTTCTTTTCCCCCCTGAC-3 Fluorescein/5CAAAAGAAAAGGGGGGACUG-3-Dabcyl RNA/DNA template-primer as substrate by multilabel counter plate reader method
[6] = system: Human immunodeficiency virus 1; assay: Antiviral activity against wild type HIV-1 IIIB infected in human MT2 cells assessed as protection against virus-induced cytopathicity incubated for 5 days by MTT assay; format: functional, organism-based; conditions: Human immunodeficiency virus 1, IIIB, MT2, 120 h
[7] = Inhibition of wild type HIV-1 RNA dependent DNA polymerase activity incubated for 30 mins by multilabel counter plate reader method; design: species or system Human immunodeficiency virus 1
[8] = system: Human immunodeficiency virus 1; assay: Antiviral activity against HIV-1 infected in human MT4 cells assessed as inhibition of virus-induced cytopathic effect measured after 5 days by spectrophotometric MTT assay; format: functional, organism-based; conditions: Human immunodeficiency virus 1, MT4, 120 h
[9] = biological target: T1, Human immunodeficiency virus type 1 reverse transcriptase; assay: Inhibition of HIV-1 reverse transcriptase associated RNase H using 5-GTTTTCTTTTCCCCCCTGAC-3 Fluorescein/5CAAAAGAAAAGGGGGGACUG-3-Dabcyl as substrate incubated for 1 hr
[10] = biological target: T2, Human immunodeficiency virus type 1 integrase (Human immunodeficiency virus 1, UniProt Q7ZJM1); assay: Inhibition of recombinant HIV-1 His-tagged LEDGF-dependent integrase preincubated for 1 hr followed by compound addition and measured after 90 mins by HTRF method
MT4 = assay: Cytotoxicity against human MT4 cells; format: functional
[11] = biological target: T1, Human immunodeficiency virus type 1 reverse transcriptase; assay: Inhibition of HIV-1 reverse transcriptase RNase H activity expressed in Escherichia coli M15 using 5-GTTTTCTTTTCCCCCCTGAC-3 Fluorescein/5CAAAAGAAAAGGGGGGACUG-3-Dabcyl RNA/DNA template-primer as substrate incubated for 1 hr by multilabel counter plate reader method
[12] = Inhibition of HIV-1 reverse transcriptase associated RNA dependent DNA polymerase activity incubated for 30 mins by multilabel counter plate reader method; design: species or system Human immunodeficiency virus 1
[13] = Cytotoxicity against human TZM-bl cells assessed as reduction in cell viability incubated for 5 days by MTT assay; format: toxicity, cell-based; conditions: time 5 day
[14] = system: Human immunodeficiency virus 1; assay: Antiviral activity against HIV-1 IIIB infected in human TZM-bl cells assessed as reduction in virus-induced cytopathic effect incubated for 5 days by MTT assay; format: functional, organism-based; conditions: Human immunodeficiency virus 1, IIIB, 120 h
[15] = biological target: T1, Human immunodeficiency virus type 1 reverse transcriptase; assay: Non-competitive inhibition of HIV reverse transcriptase polymerase activity
[16] = biological target: T1, Human immunodeficiency virus type 1 reverse transcriptase; assay: Inhibition of HIV-1 reverse transcriptase associated RNase H activity
[17] = biological target: T2, Human immunodeficiency virus type 1 integrase; assay: Inhibition of HIV-1 integrase strand transfer activity
[18] = biological target: T1, Human immunodeficiency virus type 1 reverse transcriptase; assay: Inhibition of recombinant HIV-1 reverse transcriptase […] RNase H expressed in Escherichia coli M15 using 5-GTTTTCTTTTCCCCCCTGAC-3 Fluorescein/5CAAAAGAAAAGGGGGGACUG-3-Dabcyl RNA/DNA template-primer as substrate incubated for 1 hr by multilabel counter plate reader method
[19] = Cytotoxicity against human MT4 cells assessed as reduction in cell viability by MTT assay; format: toxicity, cell-based
in vitro = conditions: human, TZM-bl cells
Description: Cytotoxicity against human TZM-bl cells assessed as reduction in cell viability at 20 uM incubated for 3 days by XTT assay

T2 sequence (Q7ZJM1 whole entry): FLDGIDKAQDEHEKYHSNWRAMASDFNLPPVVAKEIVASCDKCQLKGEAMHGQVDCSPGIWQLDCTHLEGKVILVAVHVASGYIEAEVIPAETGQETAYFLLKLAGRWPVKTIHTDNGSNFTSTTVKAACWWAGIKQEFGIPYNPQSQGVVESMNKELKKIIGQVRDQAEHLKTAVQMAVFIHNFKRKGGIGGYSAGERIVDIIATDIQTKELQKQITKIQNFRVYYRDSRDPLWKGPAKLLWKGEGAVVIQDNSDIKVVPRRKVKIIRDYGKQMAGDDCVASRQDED

O=C(O)Cc1cc(=O)oc2c(O)c(O)ccc12
pIC50 [1]: 5.96
pIC50 [2]: 5.32

C=C(C)[C@@H]1CCc2c(c(C)cc(O)c(=O)c2O)C1
pIC50 [3]: 6.22

COC(=O)c1c(C)cc(O)c(=O)c(O)c1Br
pIC50 [3]: 6.89

CCOC(=O)C(=O)CC(=O)/C=C/c1cccn1Cc1ccc(F)cc1
pEC50 [4]: 4.85

Nc1nn(C(=O)c2ccccc2)c(N)c1C(=S)Nc1ccc(Cl)cc1
pIC50 [5]: 5.15
pIC50 [6]: 4.60
pIC50 [7]: 4.77

O=C(N/N=C/c1ccc(O)cc1O)c1cc(O)c(O)c(O)c1
pEC50 [8]: 4.77
pIC50 [9]: 5.77
pIC50 [10]: 4.80
CC50 (MT4): 61 µM

Cn1cc(-c2ccc(-c3ccccc3)cc2)s/c1=N/N=C1\C(=O)Nc2ccc(Cl)cc21
pIC50 [5]: 5.02
pIC50 [3]: 5.00

COc1cc(OC)cc(OC(=O)c2ccc(C(F)(F)F)nc2Nc2cc(Cl)ccc2C)c1
pIC50 [11]: 4.85
pIC50 [12]: 4.79
CC50 at 120 h [13]: > 50 µM
pEC50 [14]: 5.30

COC(=O)c1cc(NC(=O)c2cc3cc([N+](=O)[O-])c(O)c(O)c3oc2=O)ccc1O
pIC50 [12]: 5.22

O=C1Cc2ccc(-c3ccco3)cc2C(=O)N1O
pIC50 [15]: 5.59
pIC50 [16]: 6.19

Cc1c(O)c([N+](=O)[O-])cc2cc(C(=O)Nc3ccc(O)c(C(=O)O)c3)c(=O)oc12
pIC50 [12]: 5.17
pIC50 [17]: 5.30

N#Cc1ccc(-c2c[nH]/c(=N\N=C3/C(=O)Nc4ccccc43)s2)cc1
pIC50 [18]: 5.89
pIC50 [7]: 5.01

Nc1ccc(S(=O)(=O)N2CCN(C(=O)c3cc(O)c(O)c(O)c3)CC2)cc1
CC50 [19]: > 19.9 µM

CC1=C[C@H](c2c(O)ccc([C@@H]3CC(=O)c4c(O)cc(O)cc4O3)c2O)[C@@H](C(=O)c2ccc(O)cc2O)[C@H](c2ccc(O)cc2O)C1 [KUWANON L]
CC50 at 72 h (in vitro): > 20 µM
